Results from US6638963B1, “Methods for treating circadian rhythm disorders” (Oregon Health and Science University, priority 1990, dated 2003).

Legend:
Format in all cases: in vivo, human
[1] = test system: endogenous circadian pacemaker; test: Dose effect of melatonin on shift of the endogenous circadian pacemaker; settings: melatonin dosages from about 0.125 mg to about 0.5 mg
Description: The present invention contemplates the administration of various doses of melatonin which promote quantitative shifts in an individual's endogenous circadian pacemaker. The administration of sufficient doses of melatonin is capable of shifting the endogenous circadian pacemaker, as well as the melatonin PRC, by an appropriate degree. […] The amount of melatonin administered to a human subject should be sufficient to achieve the desired circadian rhythm phase-shifting effect. In a preferred embodiment of this invention, a dosage of about 0.01 mg to about 100 mg, more preferably about 0.1 mg to about 10 mg, most preferably about 0.1 mg to about 1 mg, of exogenous melatonin is used to effect the desired change in phase of the circadian rhythm of endogenous melatonin production. For the purposes of this invention, the term “exogenously administered melatonin” encompasses various formulations of melatonin, melatonin agonists (that is, compounds that mimic melatonin's actions) and compounds that raise endogenous melatoriin levels. Therefore, whenever reference is made to increasing plasma melatonin levels due to administration of exogenous melatonin, this refers also to increasing plasma melatonin levels due to administration of a melatonin stimulant and increasing equivalent agonist levels due to administration of a melatonin agonist. […]

[2] = test system: patients with winter depression; test: Treatment of patients with winter depression, SIGH-SAD depression ratings, melatonin versus placebo (Example 11); settings: for SIGH-SAD change score from pre-treatment: 0.125 mg per capsule at about CT 8 and about CT 12, N=5, p<0.05 vs placebo
Description: Patients with winter depression were treated with either melatonin (N=5) or placebo (N=5). All subjects were screened prior to being admitted into the study and met the following criteria: 1) the DSM-IV criteria (American Psychiatric Association, 1994) for moderate to severe major depressive disorder (without psychotic episodes) or bipolar disorder (depressed or not otherwise specified) with a winter type seasonal pattern; 2) scored […] on the Structured Interview Guide for the Hamilton Depression Rating Scale Seasonal Affective Disorder Version (SIGH-SAD) (Williams et al., 1994, Structured Interview Guide for the Hamilton Depression Scale-Seasonal Effective Disorder Version (SIGH-SAD), New York: New York State Psychiatric Institute) with Hamilton Depression Scale (HAM-D) (Hamilton, 1967, Brit. J. Soc. Clin. Psychol. 6: 278-296)≦10 and an atypical score ≦5 ([…] et al., 1990, Neuropsychopharmacol. […] Prior to inclusion in the study, subjects were interviewed by a physician and also completed 7 a health and sleep screening questionnaire. Written informed consent was obtained for all participants. The study was a three-week, parallel-group design, consisting of a pre-treatment assessment followed by three treatment weeks. Subjects were randomly assigned to either a melatonin or placebo group and were counter balanced based on their initial depression scores (SIGH-SAD) and their reported awakening times. Each group received melatonin or placebo in two daily capsules at about CT 8 and about CT 12, estimated from each subject's initial reported awakening time (about CT 0). The dose of melatonin was 0.125 mg per capsule. For behavioral ratings, subjects were initially interviewed face-to-face using the 29-item Structured Interview Guide for the Hamilton Depression Rating Scale-Seasonal Affective Disorder version (SIGH-SAD). Two subsequent interviews were done weekly by telephone and the third and final interview was conducted in person. All interviews were conducted by a researcher blind to treatment conditions. For the three-week period, subjects completed a Likert daily rating form and a daily sleep diary. To specifically assess fatigue associated with the capsule, subjects also completed a Profile of Mood States (POMS) 30 minutes after ingestion of each capsule. In addition, pre-study and weekly expectations questionnaires were completed. Ten patients (9 females) with winter depression were admitted into the study. The mean age of the melatonin group was 37 (SD=13.6; range: 22-58) and the placebo group was 32.2 (SD=8.6; range: 22-42). The mean pre-treatment SIGH-SAD score for the placebo group was 29.4; the melatonin group mean was 29.2. The initial reported mean wake up time for the placebo group was 7:12 AM; the melatonin group mean was 7:20 AM. […]

[3] = test system: dim light melatonin onset (DLMO); test: Melatonin phase response curve trials, two doses of 0.25 mg two hours apart (Example 2); settings: four days, nine subjects, 30 trials, time referenced to first capsule
Description: (§1) Prior to collection of human blood, subjects were kept in dim light for about 5 hours (usually between 6 p.m. and 11 p.m.). An intravenous line or heparin lock was inserted in a forearm vein and 5 mL of blood drawn every 30 minutes between 7 p.m. and 11 p.m. The blood samples were centrifuged for 5 minutes at 1000 g and 4° C., and the plasma aspirated into a silanized glass or plastic tube. Samples were assayed immediately or frozen for later analysis. Saliva samples can alternatively be collected and analyzed
To a 1 mL aliquot of such plasma was added 50 picograms of N-acetyl-5-methoxy(α,α,β,β-D4)tryptamine as a chromatographic control. […]
(§2) The amount of melatonin present in each sample was determined by gas chromatographic-mass spectrometric analysis. […]
Mass spectrographic analysis of the column eluant was then performed. Mass spectra were recorded using a Hewlett Packard 5989A mass spectrometer with an ETP Scientific electron multiplier using HP Chemstation software. The relative signals of melatonin and the added N-acetyl-5-methoxy(α,α,β,β-D4)tryptamine control were detected at m/e (mass/charge) ratios of 320 and 323, respectively. […]
Melatonin was administered to nine subjects as two doses of 0.25 mg, two hours apart, thereby simulating a sustained-release (SR) formulation. […] Phase shifts were calculated by subtracting the post-treatment DLMO from the pre-treatment DLMO. […]

[4] = test system: dim light melatonin onset (DLMO); test: Melatonin phase response curve trials, single 0.5 mg immediate-release dose (Example 3)
Description: as §1
To a 1 mL aliquot of such plasma was added 50 picograms of N-acetyl-5-methoxy(α,α,β,β-D4)tryptamine as a chromatographic control. An equal volume of normal saline was added and the mixture gently shaken with 8 volumes of petroleum ether. The organic phase was removed, and melatonin and the added N-acetyl-5-methoxy(α,α,β,β-D4)tryptamine control extracted from the aqueous phase with 8 volumes of chloroform. The aqueous phase was then discarded, and the chloroform evaporated to dryness.
The dried extract containing melatonin and the added N-acetyl-5-methoxy(α,α,β,β-D4)tryptamine control was dissolved in 50 μL ethyl acetate. The melatonin contained in the plasma samples and the added N-acetyl-5-methoxy(α,α,β,β-D4)tryptamine control were then derivatized by the addition of 50 μL of pentafluoroproprionic acid anhydride and reacted at 70° C. for 10 minutes. These reaction products were then evaporated to dryness under nitrogen. The dried extract was partitioned between 0.5 mL acetonitrile and 1 mL hexane by vigorous mixing followed by centrifugation and removal of the hexane layer. This partitioning step was repeated twice more, except that the hexane was not removed after the final partitioning. […]
as §2
Mass spectrographic analysis of the column eluant was then performed. Mass spectra were recorded using a Hewlett Packard 5989A mass spectrometer with an ETP Scientific electron multiplier using HP Chemstation software. The relative signals of melatonin and the added N-acetyl-5-methoxy(α,α,β,β-D4)tryptamine control were detected at m/e (mass/charge) ratios of 320 and 323, respectively. The amount of melatonin present in any unknown sample can be determined by comparison of the ratio of the intensities of these signals to a standard curve, prepared as described using known amounts of melatonin and added N-acetyl-5-methoxy(α,α,β,β-D4)tryptamine control.
Melatonin was administered to five subjects as a single 0.5 mg (or immediate-release (IR)) dose. […] Dim light melatonin onset (DLMO) times were determined at the end of each week. Phase shifts were calculated from a comparison of the post-treatment DLMO to the pre-treatment DLMO. […]

[5] = both PRC studies (Examples 2 and 3)

COc1ccc2[nH]cc(CCNC(C)=O)c2c1 [melatonin, N-acetyl-5-methoxytryptamine]
dose effect on shift of endogenous circadian pacemaker [1]: linear dose effect
SIGH-SAD change score from pre-treatment ([2]; Week 1): 15.4
SIGH-SAD change score from pre-treatment ([2]; Week 2): 16.8
responders (39% or greater decrease in SIGH-SAD ratings to a score of 21 or less) ([2]; five subjects per group, one responder in placebo group, p=0.048, Fisher's Exact test): all five subjects responded
SIGH-SAD scores after two weeks of capsules, melatonin versus placebo ([2]; one-tailed unpaired t-test, p=0.05): significant difference
circadian time of administration at which maximal phase advances occur [3]: ~7.5 CT
crossover point between advance and delay responses of the melatonin PRC [4, 5]: ~18 CT
crossover point between delay and advance responses of the melatonin PRC [4, 5]: ~6 CT
circadian time for maximal phase advances ([4]; single 0.5 mg IR dose, four days, five subjects, twelve trials each): ~11 CT
circadian time at which phase delays begin ([4]; single 0.5 mg IR dose, same time as found in Example 2): ~6 CT
